Results published in patent US8247170B2, “Detection of penicillin tolerance in Group B Streptococcus: single nucleotide polymorphisms in penicillin binding protein 4” (priority 2008, dated 2012).

Test system: GBS clinical isolates and laboratory strains
Experiment: Macrobroth penicillin tolerance assay
Assay type: cell-based, Group B Streptococcus
Settings: then 24 h drug-free; for 30xMIC, regrowth O.D.600: Penicillin G 30×MIC90 48 h; for 100xMIC, regrowth O.D.600: Penicillin G 100×MIC90 48 h; for 300xMIC, regrowth O.D.600: Penicillin G 300×MIC90 48 h; for 10xMIC, regrowth O.D.600: Penicillin G 10×MIC90 48 h
Procedure: Using this modified penicillin tolerance assay, tolerant strains from the GBS clinical isolates can be more efficiently identified. In this macrobroth culture format, 25 ml THB broth GBS cultures (containing clinical isolates) were grown to an early exponential growth phase (˜0.2 OD600). Cell cultures (6 ml) were collected and divided into 4 culture tubes. […] Cell cultures were shaken at 150 rpm in order to maintain cells in suspension for proper growth. Subcultures (1/20 dilution) of cells were put into fresh THB containing […] Penase (i.e., 100 μl of Penase 10,000 U stock into 4 ml THB culture). Subcultures were allowed to grow for 24 hours at 37° C. Cell growth was monitored by OD (see Example 2).
(I) Bacterial Strains and Culture Conditions. GBS strains A909 (serotype IA), 515 (serotype IA), NEM316 (serotype III), COHI (serotype III), 2603V/R (serotype V) and O90R (non-typable) were used in this study. E. coli Top10 cells were used for the recombination experiments. GBS was cultured in Todd Hewitt broth (THB) or Tryptic Soy 5% sheep blood (TS) media and E. coli in Luria-broth (LB) medium or agar. Antibiotics were used at the following concentrations: for GBS—penicillin G (MIC90 0.06 μg ml^−1), ampicillin (MIC90 0.12 μg ml^−1), vancomycin (MIC90 2 μg ml^−1), cefazolin (MIC90 1 μg ml^−1) and chloramphenicol (5 μg ml^−1); for E. coli—ampicillin (50 μg ml^−1) and chloramphenicol (5 μg ml^−1). Both GBS and E. coli cultures were grown at 37° C. (II) Tolerance Using the MBC:MIC Ratio Method. Three GBS laboratory strains (i.e., A909, NEM316, and O90R) were cultured overnight for 18 h at 37° C. in THB. Subcultures in THB were subsequently grown to exponential phase (OD600˜0.3; i.e. 5×10^5 cfu/ml) at 37° C. Cell cultures were then exposed to different concentrations of antibiotics (Penicillin G, Ampicillin, Cefozolin or Vancomycin). […] Cell cultures were dispersed every 18 h before OD600 was measured to determine the lowest concentration of antibiotic with 90% growth inhibition (MIC90). Antibiotic treated cells (8 μl) from each well were re-suspended into PBS (100 μl) and plated (54 μl) on TS agar plates and allowed to grow for an additional 24 h at 37° C. Cell count was performed to determine the lowest concentration of antibiotic with 90% killing of original inoculums (MBC90). (III) Penicillin Killing and Regrowth Tolerance Assay by Microbroth Dilution. Three GBS laboratory strains (i.e., A909, NEM316, and O90R) were cultured overnight for 18 h at 37° C. in THB. Subcultures in THB were subsequently grown to exponential phase (OD600˜0.3) at 37° C. Cell cultures were then exposed to different concentrations of Penicillin G (Sigma, St. Louis, Mo.). […] Cell cultures were dispersed. A 1:20 dilution of cells was re-plated into new wells containing fresh THB with 500 U Penase (to degrade residual penicillin). Cell cultures were allowed to re-grow for an additional 24 h at 37° C. before the OD600 was measured. (IV) Measuring Cell Viability by Determining ATP Concentration. GBS strains were cultured for 18 h at 37° C. in THB. These cells were inoculated into fresh THB and subsequently allowed to grow to exponential phase (OD600 0.25-0.3) at 37° C. One ml of each culture was centrifuged at 5,000×g for 4 min. The cell pellet was re-suspended in ATP-free water. Cellular ATP was extracted using trichloroacetic acid (TCA) (5%) for 2 min and subsequently neutralized with Tris-EDTA-0.1M NaOAc, pH 7.75 to 10×TCA volume. The initial (in.) cellular ATP concentration ([ATP]) was measured using the ENLITEN (Promega) luciferase based reaction kit. THB cultures were then treated with 100×MIC90 Penicillin G for 22 h. The experimental (exp.) cellular ATP was extracted and the concentration was measured as stated above. Based on the calculations ([ATP] exp.)/([ATP] in./O.D. in.), differences in viability were equated with the change in [ATP]. (V) Measuring Penicillin Induced Lysis. Three GBS laboratory strains (A909, NEM316, and O90R) were cultured for 18 h at 37° C. in THB. […]

CC1(C)S[C@@H]2[C@H](NC(=O)Cc3ccccc3)C(=O)N2[C@H]1C(=O)O [Penicillin G]
30xMIC, regrowth O.D.600 (GBS strain 172 (NT)): −− (“−−” indicates an O.D.600 of 0.001 to 0.099) | 100xMIC, regrowth O.D.600 (GBS strain 172 (NT)): −− (“−−” indicates an O.D.600 of 0.001 to 0.099) | 300xMIC, regrowth O.D.600 (GBS strain 172 (NT)): −− (“−−” indicates an O.D.600 of 0.001 to 0.099) | 10xMIC, regrowth O.D.600 (GBS strain 180 (V)): −− (“−−” indicates an O.D.600 of 0.001 to 0.099) | 30xMIC, regrowth O.D.600 (GBS strain 180 (V)): −− (“−−” indicates an O.D.600 of 0.001 to 0.099) | 100xMIC, regrowth O.D.600 (GBS strain 180 (V)): −− (“−−” indicates an O.D.600 of 0.001 to 0.099) | 300xMIC, regrowth O.D.600 (GBS strain 180 (V)): −− (“−−” indicates an O.D.600 of 0.001 to 0.099) | 10xMIC, regrowth O.D.600 (GBS strain 193 (III)): −− (“−−” indicates an O.D.600 of 0.001 to 0.099) | 30xMIC, regrowth O.D.600 (GBS strain 193 (III)): −− (“−−” indicates an O.D.600 of 0.001 to 0.099) | 100xMIC, regrowth O.D.600 (GBS strain 193 (III)): −− (“−−” indicates an O.D.600 of 0.001 to 0.099) | 300xMIC, regrowth O.D.600 (GBS strain 193 (III)): −− (“−−” indicates an O.D.600 of 0.001 to 0.099) | 10xMIC, regrowth O.D.600 (GBS strain 204 (V)): −− (“−−” indicates an O.D.600 of 0.001 to 0.099) | 30xMIC, regrowth O.D.600 (GBS strain 204 (V)): −− (“−−” indicates an O.D.600 of 0.001 to 0.099) | 100xMIC, regrowth O.D.600 (GBS strain 204 (V)): −− (“−−” indicates an O.D.600 of 0.001 to 0.099) | 300xMIC, regrowth O.D.600 (GBS strain 204 (V)): −− (“−−” indicates an O.D.600 of 0.001 to 0.099) | 10xMIC, regrowth O.D.600 (GBS strain 211 (Ib)): −− (“−−” indicates an O.D.600 of 0.001 to 0.099) | 30xMIC, regrowth O.D.600 (GBS strain 211 (Ib)): −− (“−−” indicates an O.D.600 of 0.001 to 0.099) | 100xMIC, regrowth O.D.600 (GBS strain 211 (Ib)): −− (“−−” indicates an O.D.600 of 0.001 to 0.099) | 300xMIC, regrowth O.D.600 (GBS strain 211 (Ib)): −− (“−−” indicates an O.D.600 of 0.001 to 0.099) | 10xMIC, regrowth O.D.600 (GBS strain 219 (Ia)): + (“+” indicates an O.D.600 of 0.100 to 0.250) | 30xMIC, regrowth O.D.600 (GBS strain 219 (Ia)): + (“+” indicates an O.D.600 of 0.100 to 0.250) | 100xMIC, regrowth O.D.600 (GBS strain 219 (Ia)): + (“+” indicates an O.D.600 of 0.100 to 0.250) | 300xMIC, regrowth O.D.600 (GBS strain 219 (Ia)): + (“+” indicates an O.D.600 of 0.100 to 0.250) | 10xMIC, regrowth O.D.600 (GBS strain 244 (Ib)): −− (“−−” indicates an O.D.600 of 0.001 to 0.099) | 30xMIC, regrowth O.D.600 (GBS strain 244 (Ib)): −− (“−−” indicates an O.D.600 of 0.001 to 0.099) | 100xMIC, regrowth O.D.600 (GBS strain 244 (Ib)): −− (“−−” indicates an O.D.600 of 0.001 to 0.099) | 300xMIC, regrowth O.D.600 (GBS strain 244 (Ib)): −− (“−−” indicates an O.D.600 of 0.001 to 0.099) | 10xMIC, regrowth O.D.600 (GBS strain 264 (V)): +++ (“+++” indicates an O.D.600 of 0.751 to 1.500) | 30xMIC, regrowth O.D.600 (GBS strain 264 (V)): ++ (“++” indicates an O.D.600 of 0.251 to 0.750) | 100xMIC, regrowth O.D.600 (GBS strain 264 (V)): −− (“−−” indicates an O.D.600 of 0.001 to 0.099) | 300xMIC, regrowth O.D.600 (GBS strain 264 (V)): ++ (“++” indicates an O.D.600 of 0.251 to 0.750) | 10xMIC, regrowth O.D.600 (GBS strain 268 (Ib)): ++ (“++” indicates an O.D.600 of 0.251 to 0.750) | 30xMIC, regrowth O.D.600 (GBS strain 268 (Ib)): −− (“−−” indicates an O.D.600 of 0.001 to 0.099) | 100xMIC, regrowth O.D.600 (GBS strain 268 (Ib)): +++ (“+++” indicates an O.D.600 of 0.751 to 1.500) | 300xMIC, regrowth O.D.600 (GBS strain 268 (Ib)): +++ (“+++” indicates an O.D.600 of 0.751 to 1.500) | 10xMIC, regrowth O.D.600 (GBS strain 272 (V)): −− (“−−” indicates an O.D.600 of 0.001 to 0.099) | 30xMIC, regrowth O.D.600 (GBS strain 272 (V)): −− (“−−” indicates an O.D.600 of 0.001 to 0.099) | 100xMIC, regrowth O.D.600 (GBS strain 272 (V)): −− (“−−” indicates an O.D.600 of 0.001 to 0.099) | 300xMIC, regrowth O.D.600 (GBS strain 272 (V)): −− (“−−” indicates an O.D.600 of 0.001 to 0.099) | 10xMIC, regrowth O.D.600 (GBS strain 273 (V)): −− (“−−” indicates an O.D.600 of 0.001 to 0.099) | 30xMIC, regrowth O.D.600 (GBS strain 273 (V)): −− (“−−” indicates an O.D.600 of 0.001 to 0.099) | 100xMIC, regrowth O.D.600 (GBS strain 273 (V)): −− (“−−” indicates an O.D.600 of 0.001 to 0.099) | 300xMIC, regrowth O.D.600 (GBS strain 273 (V)): ++ (“++” indicates an O.D.600 of 0.251 to 0.750) | 10xMIC, regrowth O.D.600 (GBS strain 279 (III)): ++ (“++” indicates an O.D.600 of 0.251 to 0.750) | 30xMIC, regrowth O.D.600 (GBS strain 279 (III)): +++ (“+++” indicates an O.D.600 of 0.751 to 1.500) | 100xMIC, regrowth O.D.600 (GBS strain 279 (III)): ++ (“++” indicates an O.D.600 of 0.251 to 0.750) | 300xMIC, regrowth O.D.600 (GBS strain 279 (III)): ++ (“++” indicates an O.D.600 of 0.251 to 0.750) | 10xMIC, regrowth O.D.600 (GBS strain 296 (Ia)): −− (“−−” indicates an O.D.600 of 0.001 to 0.099) | 30xMIC, regrowth O.D.600 (GBS strain 296 (Ia)): −− (“−−” indicates an O.D.600 of 0.001 to 0.099) | 100xMIC, regrowth O.D.600 (GBS strain 296 (Ia)): ++ (“++” indicates an O.D.600 of 0.251 to 0.750) | 300xMIC, regrowth O.D.600 (GBS strain 296 (Ia)): −− (“−−” indicates an O.D.600 of 0.001 to 0.099) | 10xMIC, regrowth O.D.600 (GBS strain 306 (II)): −− (“−−” indicates an O.D.600 of 0.001 to 0.099) | 30xMIC, regrowth O.D.600 (GBS strain 306 (II)): −− (“−−” indicates an O.D.600 of 0.001 to 0.099) | 100xMIC, regrowth O.D.600 (GBS strain 306 (II)): −− (“−−” indicates an O.D.600 of 0.001 to 0.099) | 300xMIC, regrowth O.D.600 (GBS strain 306 (II)): −− (“−−” indicates an O.D.600 of 0.001 to 0.099) | 10xMIC, regrowth O.D.600 (GBS strain 307 (II)): −− (“−−” indicates an O.D.600 of 0.001 to 0.099) | 30xMIC, regrowth O.D.600 (GBS strain 307 (II)): −− (“−−” indicates an O.D.600 of 0.001 to 0.099) | 100xMIC, regrowth O.D.600 (GBS strain 307 (II)): −− (“−−” indicates an O.D.600 of 0.001 to 0.099) | 300xMIC, regrowth O.D.600 (GBS strain 307 (II)): −− (“−−” indicates an O.D.600 of 0.001 to 0.099)
